From ChEMBL document CHEMBL3885861, “Open TG-GATES”

Organism: Rattus norvegicus
Assay: Open TG-GATES - Regimen: Daily Repeat
Format: toxicity, organism-based, Sprague-Dawley
Design: regimen Daily Repeat, gender Male, age 6 weeks
Details: in vivo, po, route gavage; for Bas / Eos / Fbg / Hb / Ht / MCV / Mono / Neu / Plat / RBC / Ret / WBC / MCHC: tissue Blood; for KIDNEY_L / KIDNEY_R / KIDNEY_TOTAL: tissue Kidney; for LIVER: tissue Liver; for ALP / AST / BUN / CRE / DBIL / GLC / IP / K / LDH / Na / PL / RALB / TBIL / TC / TG / TP / gamma-GTP: tissue Plasma
[1] = 60 mg/kg, 72 h, dose level Middle, time 3 day
[2] = 60 mg/kg, […], dose level Middle, time 7 day
[3] = 60 mg/kg, […], dose level Middle, time 14 day
[4] = 60 mg/kg, […], dose level Middle, time 28 day
[5] = 200 mg/kg, 72 h, dose level High, time 3 day
[6] = 200 mg/kg, […], dose level High, time 7 day
[7] = 200 mg/kg, […], dose level High, time 14 day
[8] = 200 mg/kg, […], dose level High, time 28 day

CO[C@H]1/C=C/O[C@@]2(C)Oc3c(C)c(O)c4c(O)c(c(/C=N/N5CCN(C)CC5)c(O)c4c3C2=O)NC(=O)/C(C)=C\C=C\[C@H](C)[C@H](O)[C@@H](C)[C@@H](O)[C@@H](C)[C@H](OC(C)=O)[C@@H]1C [RIFAMPIN]
TERMINAL_BW [1]: 238.2 g | Bas [1]: 0% | Eos [1]: 1% | Fbg [1]: 236.6 mg/dL | Hb [1]: 13.8 g/dL | Ht [1]: 41.4% | MCV [1]: 62.9 fL | Mono [1]: 5.8% | Neu [1]: 7.4% | Plat [1]: 118.3 x10_4/uL | RBC [1]: 658.2 x10_4/ul | Ret [1]: 5.7% | KIDNEY_L [1]: 1 g | KIDNEY_R [1]: 1 g | KIDNEY_TOTAL [1]: 2 g | LIVER [1]: 11.3 g | ALP [1]: 841.6 IU/L | AST [1]: 60.4 IU/L | BUN [1]: 19 mg/dL | CRE [1]: 0.6 mg/dL | DBIL [1]: 0.02 mg/dL | GLC [1]: 189 mg/dL | IP [1]: 9 mg/dL | K [1]: 4.7 meq/L | LDH [1]: 98.8 IU/L | Na [1]: 139.2 meq/L | PL [1]: 135.4 mg/dL | RALB [1]: 3.6 g/dL | TBIL [1]: 0.4 mg/dL | TC [1]: 83 mg/dL | TG [1]: 71 mg/dL | TP [1]: 5.7 g/dL | gamma-GTP [1]: 1 IU/L | TERMINAL_BW [2]: 259.9 g | TERMINAL_BW [3]: 298.5 g | TERMINAL_BW [4]: 379.8 g | Bas [2]: 0% | Eos [2]: 0.6% | Fbg [2]: 239.6 mg/dL | Hb [2]: 14.1 g/dL | Ht [2]: 42.6% | MCV [2]: 62.5 fL | Mono [2]: 5.2% | Neu [2]: 7% | Plat [2]: 107 x10_4/uL | RBC [2]: 683.2 x10_4/ul | Ret [2]: 5.7% | WBC [2]: 130.9 x10_2/uL | Bas [3]: 0% | Eos [3]: 0.6% | Fbg [3]: 226.6 mg/dL | Hb [3]: 15.2 g/dL | Ht [3]: 44.9% | MCHC [3]: 33.8% | MCV [3]: 60.6 fL | Mono [3]: 3.2% | Neu [3]: 3.4% | Plat [3]: 115.2 x10_4/uL | RBC [3]: 742.6 x10_4/ul | Ret [3]: 3.5% | WBC [3]: 161.2 x10_2/uL | Bas [4]: 0% | Eos [4]: 1% | Fbg [4]: 226.4 mg/dL | Hb [4]: 15.2 g/dL | Ht [4]: 44.9% | MCHC [4]: 33.8% | MCV [4]: 55.8 fL | Mono [4]: 3.4% | Neu [4]: 9.6% | Plat [4]: 117.9 x10_4/uL | RBC [4]: 803.6 x10_4/ul | Ret [4]: 2.3% | WBC [4]: 138.4 x10_2/uL | KIDNEY_L [2]: 1.1 g | KIDNEY_R [2]: 1.1 g | KIDNEY_TOTAL [2]: 2.2 g | KIDNEY_L [3]: 1.1 g | KIDNEY_R [3]: 1.2 g | KIDNEY_TOTAL [3]: 2.3 g | KIDNEY_L [4]: 1.3 g | KIDNEY_R [4]: 1.3 g | KIDNEY_TOTAL [4]: 2.7 g | LIVER [2]: 11.6 g | LIVER [3]: 12.9 g | LIVER [4]: 14.8 g | ALP [2]: 813.8 IU/L | AST [2]: 64.6 IU/L | BUN [2]: 16.8 mg/dL | CRE [2]: 0.5 mg/dL | DBIL [2]: 0.032 mg/dL | GLC [2]: 193.6 mg/dL | IP [2]: 8 mg/dL | K [2]: 5 meq/L | LDH [2]: 89.4 IU/L | Na [2]: 139.2 meq/L | PL [2]: 145.4 mg/dL | RALB [2]: 3.9 g/dL | TBIL [2]: 0.3 mg/dL | TC [2]: 80.4 mg/dL | TG [2]: 90.6 mg/dL | TP [2]: 6 g/dL | gamma-GTP [2]: 2.4 IU/L | ALP [3]: 779.4 IU/L | AST [3]: 58.6 IU/L | BUN [3]: 18.2 mg/dL | CRE [3]: 0.5 mg/dL | DBIL [3]: 0.044 mg/dL | GLC [3]: 193.4 mg/dL | IP [3]: 7.7 mg/dL | K [3]: 5.2 meq/L | LDH [3]: 70.8 IU/L | Na [3]: 139.8 meq/L | PL [3]: 160.8 mg/dL | RALB [3]: 3.9 g/dL | TBIL [3]: 0.3 mg/dL | TC [3]: 83.6 mg/dL | TG [3]: 116.6 mg/dL | TP [3]: 6.1 g/dL | gamma-GTP [3]: 1.2 IU/L | ALP [4]: 610.4 IU/L | AST [4]: 55.6 IU/L | BUN [4]: 18.4 mg/dL | CRE [4]: 0.6 mg/dL | DBIL [4]: 0.038 mg/dL | GLC [4]: 185 mg/dL | IP [4]: 7 mg/dL | K [4]: 4.4 meq/L | LDH [4]: 76.2 IU/L | Na [4]: 140.6 meq/L | PL [4]: 159.6 mg/dL | RALB [4]: 4 g/dL | TBIL [4]: 0.3 mg/dL | TC [4]: 81.6 mg/dL | TG [4]: 132 mg/dL | TP [4]: 6.2 g/dL | gamma-GTP [4]: 1.2 IU/L | TERMINAL_BW [5]: 223.8 g | Bas [5]: 0% | Eos [5]: 1% | Fbg [5]: 229 mg/dL | Hb [5]: 14.3 g/dL | Ht [5]: 43.3% | MCHC [5]: 33.1% | MCV [5]: 63.4 fL | Mono [5]: 5% | Neu [5]: 2.6% | Plat [5]: 122.5 x10_4/uL | RBC [5]: 684 x10_4/ul | Ret [5]: 3.9% | WBC [5]: 123.3 x10_2/uL | KIDNEY_L [5]: 1 g | KIDNEY_R [5]: 1 g | KIDNEY_TOTAL [5]: 2.1 g | LIVER [5]: 10.2 g | ALP [5]: 864.8 IU/L | AST [5]: 61.8 IU/L | BUN [5]: 15.8 mg/dL | CRE [5]: 0.5 mg/dL | DBIL [5]: 0.1 mg/dL | GLC [5]: 189 mg/dL | IP [5]: 8.8 mg/dL | K [5]: 5.1 meq/L | LDH [5]: 204.6 IU/L | Na [5]: 138.8 meq/L | PL [5]: 108 mg/dL | RALB [5]: 3.7 g/dL | TBIL [5]: 0.6 mg/dL | TC [5]: 67 mg/dL | TG [5]: 48.2 mg/dL | TP [5]: 6 g/dL | gamma-GTP [5]: 1.2 IU/L | TERMINAL_BW [6]: 249 g | TERMINAL_BW [7]: 298.6 g | TERMINAL_BW [8]: 356.4 g | Bas [6]: 0% | Eos [6]: 0.4% | Fbg [6]: 226.8 mg/dL | Hb [6]: 13.8 g/dL | Ht [6]: 41.1% | MCHC [6]: 33.5% | MCV [6]: 62.9 fL | Mono [6]: 6.4% | Neu [6]: 7.4% | Plat [6]: 106.5 x10_4/uL | RBC [6]: 653.6 x10_4/ul | Ret [6]: 4.7% | WBC [6]: 165.2 x10_2/uL | Bas [7]: 0% | Eos [7]: 0.2% | Fbg [7]: 222.4 mg/dL | Hb [7]: 13.9 g/dL | Ht [7]: 41.2% | MCHC [7]: 33.7% | MCV [7]: 58.7 fL | Mono [7]: 3.4% | Neu [7]: 4.8% | Plat [7]: 114.3 x10_4/uL | RBC [7]: 702.8 x10_4/ul | Ret [7]: 4.2% | WBC [7]: 185.6 x10_2/uL | Bas [8]: 0% | Eos [8]: 0.6% | Fbg [8]: 214.4 mg/dL | Hb [8]: 14 g/dL | Ht [8]: 42.2% | MCHC [8]: 33.1% | MCV [8]: 53.7 fL | Mono [8]: 5.4% | Neu [8]: 8.8% | Plat [8]: 111.8 x10_4/uL | RBC [8]: 786.6 x10_4/ul | Ret [8]: 2.4% | WBC [8]: 116.3 x10_2/uL | KIDNEY_L [6]: 1 g | KIDNEY_R [6]: 1 g | KIDNEY_TOTAL [6]: 2 g | KIDNEY_L [7]: 1.2 g | KIDNEY_R [7]: 1.2 g | KIDNEY_TOTAL [7]: 2.4 g | KIDNEY_L [8]: 1.3 g | KIDNEY_R [8]: 1.3 g | KIDNEY_TOTAL [8]: 2.6 g | LIVER [6]: 12.2 g | LIVER [7]: 13.9 g | LIVER [8]: 16.8 g | ALP [6]: 976.6 IU/L | AST [6]: 62.2 IU/L | BUN [6]: 17.4 mg/dL | CRE [6]: 0.5 mg/dL | DBIL [6]: 0.2 mg/dL | GLC [6]: 181.2 mg/dL | IP [6]: 9 mg/dL | K [6]: 4.9 meq/L | LDH [6]: 158.4 IU/L | Na [6]: 139.8 meq/L | PL [6]: 139.6 mg/dL | RALB [6]: 3.9 g/dL | TBIL [6]: 0.5 mg/dL | TC [6]: 74.8 mg/dL | TG [6]: 75.8 mg/dL | TP [6]: 6.2 g/dL | gamma-GTP [6]: 1.8 IU/L | ALP [7]: 781 IU/L | AST [7]: 60.2 IU/L | CRE [7]: 0.5 mg/dL | DBIL [7]: 0.2 mg/dL | GLC [7]: 182.2 mg/dL | IP [7]: 8.3 mg/dL | K [7]: 4.9 meq/L | LDH [7]: 163.8 IU/L | Na [7]: 140.8 meq/L | PL [7]: 144.8 mg/dL | RALB [7]: 4.1 g/dL | TBIL [7]: 0.4 mg/dL | TC [7]: 82.2 mg/dL | TG [7]: 73 mg/dL | TP [7]: 6.1 g/dL | gamma-GTP [7]: 1.8 IU/L | ALP [8]: 771 IU/L | AST [8]: 54.8 IU/L | BUN [8]: 19.2 mg/dL | CRE [8]: 0.5 mg/dL | DBIL [8]: 0.3 mg/dL | GLC [8]: 185.4 mg/dL | K [8]: 4.4 meq/L | LDH [8]: 160.6 IU/L | Na [8]: 141.2 meq/L | PL [8]: 134 mg/dL | RALB [8]: 4.1 g/dL | TBIL [8]: 0.6 mg/dL | TC [8]: 76 mg/dL | TG [8]: 75.4 mg/dL | TP [8]: 6.3 g/dL | gamma-GTP [8]: 0.8 IU/L
